In US11554124B2, “Hematopoiesis-enhancing agent” (priority 2018, dated 2023):

Assays:
erythropoietin = assay: Serum erythropoietin levels determined by ELISA; assay type: in vivo, mouse; conditions: CLEU 50 mg/body i.p., vs PBS
Source text: FIG. 2 is the experimental result showing that a significant erythropoiesis was induced independently of erythropoietin as a result of SAM reduction by CLEU. Panel A: Abundance of SAM in cells selected from bone marrow subset II treated with PBS or CLEU (Day 2). Panel B: Peripheral blood hemoglobin concentration on the days indicated after PBS or CLEU treatment. Panel C: Total bone marrow cells harvested from the left and right femur and tibiae of PBS or CLEU treated mouse (Day 2). Panel D: Representative image (photograph) of tibia of PBS or CLEU treated mouse (Day 2). Panels E and F: Matured bone marrow cells from each group analyzed by flow cytometry (Day 2). Representative results of flow cytometric analysis are shown in Panel E. Cumulative cell numbers in each of the indicated groups are shown in F. Red blood cell (Ter119^+ Gr1^− B220^− CD4^− CD8^−), myeloid (Gr1^+ Ter119^− B220^− CD4^− CD8^−), and B cells (B220^+ Ter119^− Gr1^− CD4^− CD8^−). Panels G and H: Numbers of bone marrow erythroblasts in each of the subsets analyzed by flow cytometry (Day 2). […] Panel L: Serum erythropoietin levels determined by ELISA. […] For measuring complete blood count of peripheral blood, peripheral blood was collected from facial veins and counted by use of an automated animal blood cell counter (microsemi LC-662). […]

[1] = system: human cord blood CD34+ cells; assay: In vitro erythroid differentiation of human CD34+ umbilical cord blood cells; assay type: cell-based; conditions: CLEU 2.5 mg/ml, differentiation medium 7 days
Experimental: Human CD34^+ umbilical cord blood cells were obtained from the Kanto Koshinetsu Block Blood Center (Tokyo, Japan). The use of cord blood samples for research purposes was approved by the Tohoku University Ethics Committee. The technical details of this method have been described previously. Briefly, CD34^+ umbilical cord blood cells were cultured in growth medium for 5 days, and subsequently, the cells (1×10^5/ml) were cultured in differentiation medium for 7 days. For treatment with CLEU, the concentration thereof was 2.5 mg/ml. As the growth medium, StemMACS HSC Expansion Media XF, human (MACS), supplemented with StemMACS HSC Expansion Cocktail, human (MACS) was used. As the differentiation medium, StemSpan SFEM (STEMCELL) supplemented with hSCF (100 ng/ml; Peprotech), hFLT3-L (33.3 ng/ml; Peprotech), hIL3 (13.3 ng/ml; Peprotech), hBMP4 (13.3 ng/ml; Peprotech), hEPO (2.67 IU/ml; Kyowa Kirin Co., Ltd.), and hydrocortisone (1 μM; Sigma) was used.
Finally, the effect of CLEU on in vitro erythroid cell differentiation conditions of human cord blood CD34^+ cells was investigated.

[2] = Complete blood count of peripheral blood of treated mice; assay type: in vivo; conditions: CLEU 50 mg/body i.p.
Experimental: Wild-type mice with a genetic background of C57BL/6J were purchased from Charles River Laboratories, Inc. Mice at 8 to 14 weeks of age were used for analysis. For CLEU treatment (50 mg/body), a solution of cycloleucine (CLEU) was prepared by diluting cycloleucine (CLEU) (Sigma) in PBS (50 mg/ml), and 1 ml of the CLEU solution was administered intraperitoneally. For AKBA treatment (2 mg/body), 2 mg AKBA (Enzo Life Sciences)/20% DMSO/1 mL PBS solution was administered intraperitoneally. Vehicle without AKBA was used as a control. For measuring complete blood count of peripheral blood, peripheral blood was collected from facial veins and counted by use of an automated animal blood cell counter (microsemi LC-662). All of the experiments conducted in this study were approved by the Animal Experiment Committee of the Environmental Safety Committee of Tohoku University.

DNA CpG methylation = assay: Whole genome bisulfite sequencing (WGBS) of bone marrow erythroblast subset II; assay type: in vivo, mouse; conditions: CLEU, BM erythroblast subset II, Day 2, vs PBS
Experimental: DNA was isolated by using phenol/chloroform extraction from sorted sample of bone marrow subset II erythroblasts (PBS; n=2, CLEU; n=2). DNA quality control, bisulfite conversion, library preparation, high-throughput sequencing, and data mapping were performed at Macrogen, Inc. Briefly, TruSeq DNA Methylation Kit and EZ DNA Methylation Gold (Illumina and Zymo Research) were used for library preparation according to the manufacturer's protocol (TruSeq DNA Methylation Library Preparation Guide), followed by high-throughput sequencing by HiseqX (Illumina). After the sequencing run, the raw sequence reads were filtered based on quality, and the adapter sequences were trimmed off. The remaining reads are mapped to the reference genome (mm9) using BSMAP based on SOAP (Short Oligo Alignment Program). SAMBAMBA version 0.5.9 was used to remove index and PCR duplicates, and to select reads with modification. Methylation level was calculated for every single cytosine from mapping results using BSMAP version 2.87. Only cytosine positions with >=5 reads coverage were used for further analysis.
The overall transcriptional changes observed as above could be attributed to epigenetic modification changes due to the reduced abundance of intracellular SAM (Panel A of FIG. 2). […]

**Q.** What does the source list for `NC1(C(=O)O)CCCC1` [CLEU, cycloleucine]?
**A.** serum erythropoietin levels (erythropoietin): significantly down-regulated; erythroid differentiation and maturation of human cord blood CD34+ cells [1]: induce not only erythroid differentiation but also maturation; hematocrit ([2]; Days 1-6, vs PBS): marked increase; platelet counts ([2]; Days 1-6, vs PBS): no particularly consistent differences; red blood cells ([2]; Days 1-6, vs PBS): marked increase; white blood cell counts ([2]; Days 1-6, vs PBS): no particularly consistent differences; hemoglobin levels ([2]; peripheral blood, vs PBS): marked increase; reduction of DNA CpG methylation overall (DNA CpG methylation): about 2%
